Measurements as given in ChEMBL document CHEMBL5329193, “Targeting Mycobacterium tuberculosis iron-scavenging tools: a recent update on siderophores inhibitors” (RSC Med Chem, 2023).
Values after ≈ are worked out from the molar mass of the structure shown.

System: Mycobacterium tuberculosis
Assay: Antitubercular activity against Multi-drug resistant Mycobacterium tuberculosis assessed as inhibition of bacterial growth incubated for 14 days by microplate alamar blue assay
Assay type: functional
Details: 336 h, time 14 day

Compound: CCCCCCCCCCCCCCCCC(=O)N(O)CCCC[C@H](NC(=O)[C@@H]1COC(c2ccccc2O)=N1)C(=O)NC[C@H](CC(=O)CCCO[C@H]1O[C@@H]2O[C@@]3(C)CC[C@H]4[C@H](C)CC[C@@H]([C@H]1C)[C@@]24OO3)C(=O)N[C@H]1CCCCN(O)C1=O
- MIC: 0.16 µg/mL (≈ 0.137 µM)
